The source made the active and inactive calls. No cut-off for these calls is given here.
Key:
[1] = Acute toxicity in zebra fish assessed as decrease in swim bladder area at 2.5 ug/ml and measured at 120 hpf by microscopic analysis; design: species or system Danio rerio; conditions: zebrafish; dose 2.5 µg/ml
Danio rerio [2] = species: Danio rerio; assay: Antialzheimer activity against AlCl3-induced Alzheimer's disease zebra fish model assessed as total distance moved at 0.078 ug/ml treated for 24 hrs and measured after 24 hrs under light environment (reference value: 230 cm); type: functional; conditions: dose 0.078 µg/ml; time 48 hrs
Acetylcholinesterase [3] = target: T1, Acetylcholinesterase (Electrophorus electricus, UniProt O42275); assay: Drug metabolism assessed as electric eel AChE-mediated 3-(4-fluorophenyl)-1-(2-hydroxyphenyl)prop-2-en-1-one formation treated at 150 mmol/L with 0.5U AChE and measured after 9 mins by HPLC analysis; type: ADME; conditions: 0.15 h
T1 sequence (O42275 whole entry): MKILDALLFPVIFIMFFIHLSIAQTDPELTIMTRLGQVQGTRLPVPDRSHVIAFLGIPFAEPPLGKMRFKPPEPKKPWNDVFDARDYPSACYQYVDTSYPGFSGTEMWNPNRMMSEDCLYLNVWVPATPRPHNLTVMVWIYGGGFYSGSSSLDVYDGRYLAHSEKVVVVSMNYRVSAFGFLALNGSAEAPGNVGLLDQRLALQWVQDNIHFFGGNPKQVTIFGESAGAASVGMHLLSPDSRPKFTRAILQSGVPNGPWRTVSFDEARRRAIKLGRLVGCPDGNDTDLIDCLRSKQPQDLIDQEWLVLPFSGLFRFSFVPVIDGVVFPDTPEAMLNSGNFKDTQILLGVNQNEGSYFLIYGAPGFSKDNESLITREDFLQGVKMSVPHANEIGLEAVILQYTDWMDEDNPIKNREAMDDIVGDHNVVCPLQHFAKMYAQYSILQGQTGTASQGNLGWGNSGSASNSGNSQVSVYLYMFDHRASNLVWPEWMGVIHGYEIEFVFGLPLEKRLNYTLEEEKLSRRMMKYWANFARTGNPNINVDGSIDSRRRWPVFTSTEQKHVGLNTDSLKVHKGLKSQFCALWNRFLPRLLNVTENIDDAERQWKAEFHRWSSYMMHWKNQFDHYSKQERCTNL

Danio rerio [4] = species: Danio rerio; assay: Neuroprotective activity against AlCl3-induced Alzheimer's disease zebra fish model assessed as distance velocity at 0.0195 ug/ml treated for 24 hrs and measured after 24 hrs under dark environment (reference value: 10.4 cm/min); type: functional; conditions: dose 0.0195 µg/ml; time 48 hrs
Danio rerio [5] = species: Danio rerio; assay: Neuroprotective activity against AlCl3-induced Alzheimer's disease zebra fish model assessed as inhibition of AlCl3-induced AChE activity at 0.0049 to 0.078 ug/ml treated for 24 hrs and measured after 24 hrs; type: functional, organism-based; conditions: dose 0.0049-0.078 µg/ml, time 48.0 hrs
[6] = Acute toxicity in zebra fish assessed as ratio of pericardial edema to body weight at 0.15625 to 2.5 ug/ml and measured at 120 hpf by microscopic analysis; design: species or system Danio rerio; conditions: zebrafish; dose 0.15625-2.5 µg/ml
Danio rerio [7] = species: Danio rerio; assay: Neuroprotective activity against AlCl3-induced Alzheimer's disease zebra fish model assessed as distance velocity at 0.078 ug/ml treated for 24 hrs and measured after 24 hrs under dark environment (reference value: 10.4 cm/min); type: functional; conditions: dose 0.078 µg/ml; time 48 hrs
Danio rerio [8] = species: Danio rerio; assay: Antialzheimer activity against AlCl3-induced Alzheimer's disease zebra fish model assessed as total distance moved at 0.0195 ug/ml treated for 24 hrs and measured after 24 hrs under light environment (reference value: 230 cm); type: functional; conditions: dose 0.0195 µg/ml; time 48 hrs
BV-2 [9] = assay: Anti-inflammatory activity against LPS-stimulated mouse BV-2 cells assessed as inhibition of LPS-induced IL-6 production incubated for 24 hrs in presence of LPS; type: functional, cell-based; conditions: dose 1-9 µM
[10] = Stability of the compound in rat plasma assessed as parent compound remaining at 10 ug/ml measured after 3 hrs by UPLC-MS/MS analysis; type: ADME, cell-free; conditions: at 10 µg/mL, read-out: Stability
[11] = target: T2, Amine oxidase [flavin-containing] A (Homo sapiens, UniProt P21397); assay: Inhibition of human recombinant MAO-A expressed in baculovirus-infected BTI cells using kynuramine as substrate incubated for 30 mins by fluorescence based analysis
T2 sequence (P21397 whole entry): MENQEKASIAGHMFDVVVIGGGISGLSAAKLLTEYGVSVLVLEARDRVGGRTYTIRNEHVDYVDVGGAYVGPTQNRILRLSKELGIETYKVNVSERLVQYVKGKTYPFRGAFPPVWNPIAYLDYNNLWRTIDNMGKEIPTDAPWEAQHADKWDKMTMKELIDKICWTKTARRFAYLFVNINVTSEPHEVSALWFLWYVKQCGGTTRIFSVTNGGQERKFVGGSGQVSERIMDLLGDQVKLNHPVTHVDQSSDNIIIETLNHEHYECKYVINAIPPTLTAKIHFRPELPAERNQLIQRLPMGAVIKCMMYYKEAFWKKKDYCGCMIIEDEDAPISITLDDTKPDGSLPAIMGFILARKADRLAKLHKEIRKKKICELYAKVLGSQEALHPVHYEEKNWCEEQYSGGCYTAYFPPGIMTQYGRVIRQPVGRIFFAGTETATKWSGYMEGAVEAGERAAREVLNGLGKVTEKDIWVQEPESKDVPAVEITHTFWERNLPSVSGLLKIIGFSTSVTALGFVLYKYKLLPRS

BV-2 [12] = assay: Anti-inflammatory activity against LPS-stimulated mouse BV-2 cells assessed as inhibition of LPS-induced NO production incubated for 24 hrs in presence of LPS; type: functional, cell-based; conditions: dose 1-9 µM
Homo sapiens = species: Homo sapiens; assay: Selectivity index, ratio of IC50 for inhibition of human recombinant MAO-A expressed in baculovirus-infected BTI cells to IC50 for inhibition of human recombinant MAO-B expressed in baculovirus-infected BTI cells
BV-2 [13] = assay: Anti-inflammatory activity against LPS-stimulated mouse BV-2 cells assessed as inhibition of LPS-induced IL-1 beta production incubated for 24 hrs in presence of LPS; type: functional, cell-based; conditions: dose 1-9 µM
Acetylcholinesterase [14] = target: T1, Acetylcholinesterase; assay: Drug metabolism assessed as electric eel AChE-mediated 3-(4-fluorophenyl)-1-(2-hydroxyphenyl)prop-2-en-1-one formation treated at 150 mmol/L with 0.25U AChE and measured after 9 mins by HPLC analysis; type: ADME; conditions: 0.15 h
[15] = Metal chelating activity assessed as compound-Fe2+ complex formation at 37.5 uM incubated for 30 mins in presence of FeSO4 by UV-Vis spectrometry
PC-12 = assay: Neuroprotective activity against Amyloid beta(25 to 35)-induced cell injury in rat PC12 cells assessed as cell viability at 5 uM pretreated for 2 hrs followed by incubation with Abeta(25 to 35) for 24 hrs by CCK-8 assay (reference value: 41 to 58.6%); type: functional; conditions: time 26 hrs, read-out: Activity
Danio rerio [16] = species: Danio rerio; assay: Neuroprotective activity against AlCl3-induced Alzheimer's disease zebra fish model assessed as distance velocity at 0.0049 ug/ml treated for 24 hrs and measured after 24 hrs under alternating light dark stimuli conditions (reference value: 9 cm/min); type: functional; conditions: dose 0.0049 µg/ml; time 48 hrs
[17] = target: Acetylcholinesterase (Electrophorus electricus) (UniProt O42275); assay: Reversible inhibition of electric eel AChE assessed as enzyme activity using acetylthiocholine iodide as substrate measured after dilution to 0.1XIC50 for 120 mins by Ellman's method; design: scale not given: the % may be the effect or the level left
Chain of Acetylcholinesterase (Electrophorus electricus) (O42275 24-633 limits assumed): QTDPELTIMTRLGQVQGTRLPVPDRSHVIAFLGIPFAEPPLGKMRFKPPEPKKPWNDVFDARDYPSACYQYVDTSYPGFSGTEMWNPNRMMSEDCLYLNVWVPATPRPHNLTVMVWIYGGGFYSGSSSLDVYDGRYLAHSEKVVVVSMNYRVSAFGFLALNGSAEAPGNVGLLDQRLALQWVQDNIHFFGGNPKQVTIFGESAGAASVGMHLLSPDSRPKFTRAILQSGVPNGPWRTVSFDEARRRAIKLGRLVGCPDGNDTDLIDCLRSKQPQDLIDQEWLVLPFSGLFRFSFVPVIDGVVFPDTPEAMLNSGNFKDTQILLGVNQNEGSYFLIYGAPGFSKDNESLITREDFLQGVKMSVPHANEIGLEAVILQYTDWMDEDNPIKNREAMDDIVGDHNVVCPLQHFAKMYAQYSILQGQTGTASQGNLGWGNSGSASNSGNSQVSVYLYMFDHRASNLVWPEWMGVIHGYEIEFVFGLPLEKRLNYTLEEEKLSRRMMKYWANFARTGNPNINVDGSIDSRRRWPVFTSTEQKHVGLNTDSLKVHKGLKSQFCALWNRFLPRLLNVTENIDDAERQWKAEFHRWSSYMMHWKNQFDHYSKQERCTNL

Danio rerio [18] = species: Danio rerio; assay: Neuroprotective activity against AlCl3-induced Alzheimer's disease zebra fish model assessed as increase in ACh content at 0.0049 to 0.078 ug/ml treated for 24 hrs and measured after 24 hrs; type: functional, organism-based; conditions: dose 0.0049-0.078 µg/ml, time 48.0 hrs
[19] = Acute toxicity in zebra fish assessed as maximum non-lethal dose; design: species or system Danio rerio; conditions: zebrafish
Danio rerio [20] = species: Danio rerio; assay: Antialzheimer activity against AlCl3-induced Alzheimer's disease zebra fish model assessed as total distance moved at 0.0049 ug/ml treated for 24 hrs and measured after 24 hrs measured under light environment (reference value: 230 cm); type: functional; conditions: dose 0.0049 µg/ml; time 48 hrs
BV-2 [21] = assay: Cytotoxicity against mouse BV-2 cells assessed as reduction in cell viability at 10 uM by CCK8 assay; type: toxicity, cell-based; conditions: bv-2, 10 µM
Danio rerio [22] = species: Danio rerio; assay: Antialzheimer activity against AlCl3-induced Alzheimer's disease zebra fish model assessed as total distance moved at 0.0195 ug/ml treated for 24 hrs and measured after 24 hrs under alternating light dark stimuli conditions (reference value: 543 cm); type: functional; conditions: dose 0.0195 µg/ml; time 48 hrs
[23] = Acute toxicity in zebra fish assessed as proportion of dead zebrafish at 5 to 10 ug/ml and measured every 24 hrs upto 120 hours post fertilization; design: species or system Danio rerio; conditions: in vivo, at 5 to 10 µg/mL, dose 5-10 µg/ml, read-out: Activity
Danio rerio [24] = species: Danio rerio; assay: Neuroprotective activity against AlCl3-induced Alzheimer's disease zebra fish model assessed as distance velocity at 0.0049 ug/ml treated for 24 hrs and measured after 24 hrs under dark environment (reference value: 10.4 cm/min); type: functional; conditions: dose 0.0049 µg/ml; time 48 hrs

SMILES: CCN(C)C(=O)Oc1ccccc1C(=O)/C=C/c1ccc(F)cc1
- Activity [1]: Toxic
- Activity (Danio rerio [2]): 226 cm
- Drug metabolism (Acetylcholinesterase [3]): 24.87 mmol/L
- Activity (Danio rerio [4]): 19.2 cm/min
- Activity (Danio rerio [5]): Active
- Activity [6]: Non-Toxic
- Activity (Danio rerio [7]): 17.9 cm/min
- Activity (Danio rerio [8]): 344 cm
- Activity (BV-2 [9]): Dose-Dependent Effect
- remaining at 3 h, 10 ug/ml [10]: 99.3%
- IC50 [11]: 38.2 µM
- Activity (BV-2 [12]): Dose-Dependent Effect
- Ratio IC50 (Homo sapiens): 20.1
- Activity (BV-2 [13]): Dose-Dependent Effect
- Drug metabolism (Acetylcholinesterase [14]): 22.57 mmol/L
- Activity [15]: inactive
- viability at 5 µM (PC-12): 70.9%
- Activity (Danio rerio [16]): 12.7 cm/min
- Activity [17]: 88.7%
- Activity (Danio rerio [18]): Active
- Activity [19]: 2.5 µg/mL
- Activity (Danio rerio [20]): 373 cm
- Activity (BV-2 [21]): Non-Toxic
- Activity (Danio rerio [22]): 922 cm
- mortality [23]: 100%
- Activity (Danio rerio [24]): 13 cm/min
